The test system of one assay is HIV(II) virus. The assay can be described thus: Test B (XTT), MT4 cells infected with HIV(II). Format: cell-based. The protocol: (§1) Tests A, B, C, and D (XTT)
(§2) MT4 cells in a medium of RPMI 1640, 5% FCS, penicillin/streptomycin are adjusted to 2x10^5 cells/ml and seeded into microplates (96 wells/plate) 100 µl cell suspension/well giving 2x10^4 cells/well. The compound to be tested is made into a 10 mg/ml mixture in DMSO and stored at -20°C. The compound in DMSO is diluted with medium containing 10% DMSO in a 10-fold dilution series to give 1 mg/ml, 10 mg/ml, and […] solutions. Further dilutions to 400, 40, 4 and 0.4 mg/ml are made in medium containing microplates. Fifty µl of the 400, 40, and 4 mg/ml are transferred to the cell-containing microplates with a multi-channel pipette (final concentration: 100, 10, and 1 mg/ml). Finally, 50 µl of virus suspension is added to each well (with a repetitive "Eppendorf" multipipett). Each plate has at least six wells with the following: [Test A: HIV virus; Test B: HIV(II) virus; Test C: SIV virus; Test D: No virus]; with no drug (virus control) and six wells without virus (medium control). The plate is put into a plastic bag and incubated for six days in CO2 atmosphere. To each well in the plate is added 50 µl of XTT ((2,3-bis[2-methoxy-4-nitro-5-sulfophenyl]-5-[(phenylamino)carbonyl]-2H-tetrazolium hydroxide), (1 mg/ml 0.01-0.02 mM N-metyl-phenazonium methosulfate). After six hours of incubation in CO2 atmosphere the plates are covered with adhesive plate sealers and gently mixed on a vortex. Optical densities are determined at a wavelength of 450 nm and a reference wavelength of 650 nm. The percent reduction of cytotoxocity caused by the virus infection is calculated as follows: (OD450 compound - OD450 inf cells)/(OD450 uninf cells - OD450 inf cells)x 100 [formula]
Background: Tetrazolium assays rely on reduction of a dye to a coloured formazan, in cell work by metabolically active cells.

In a further assay the test system is HIV-2. The experiment in a line: Test F (HIV-2 RT), RT activity in supernatant of infected MT-4/H9 cells. Format: cell-based. Particulars: for inhibition at 0.1 µg/mL / inhibition at 1 µg/mL / inhibition at 10 µg/mL / inhibition at 100 µg/mL: Human immunodeficiency virus 2, H9, Test F; for % inhibition: Test F. The protocol:
(§3) Tests E, F, G, H (HIV-IRT, HIV-2RT, SIVRT, no virus)
(§4) MT-4/H9-cells are adjusted to 2x10^5 cells/ml medium (RPMI 1640, 5% FCS, penicillin/streptomycin) and seeded into microplates (96 wells/plate) […] cell suspension/well giving 2 x 10^4 cells/well. The compound to be tested is made 10 mg/ml in DMSO = stock solution (stored at -20°C). The compound dissolved in DMSO is diluted 25 times in medium to give 400 mg/ml. Further dilutions to 40 mg/ml and 4 mg/ml are made in microplates.
(§5) 50 µl of the dilutions 400 mg/ml, 40 mg/ml and 4mg/ml are transferred to the "cell-containing" microplate with a multichannel pipette. […]
(§6) Finally 50 µl of virus suspension is added to each well (with a repetitive "Eppendorf multipett"). [Test E-HIV-1; Test F-HIV-2; Test G-SIV; Test H-no virus].
(§7) Each plate has at least four wells with virus but no drug (virus control) and two wells without virus (medium control). The plate is put into a plastic bag to avoid evaporation and incubated for six days in CO2-atmosphere. 10 µl supernatant from each well is transferred with a multichannel pipette into a new microplate to which 40 ml VDB, (50 mM Tris-HCl pH = 7.6, 35 mM KCl, 4 mM DTT, 1 mM EDTA, 1.3% Triton X-100), have been added to each well. The addition of 50 ml RT-reaction mix, (10 ml culture supernatant, 40 ml VDB and 50 ml reaction mixture giving a final concentration of: 100 mM Tris-HCl pH = 7.6, 100 mM KCl, 4 mM MgCl2, 4 mM DTT, 275 mg/ml BSA/ml, 5 mg (rA)n(dT)12-18/ml and 0.3 mM ^3H dTTP (specific activity 18.000 cpm/pmol)) gives a final volume of […]/well. After 60 minutes of incubation the whole assay volume is transferred by use of a cell harvester to a filter mat prewetted with 5% TCA. The filter is washed in 5% TCA and rinsed once in ethanol. After drying the filter mat at 60°C for 30 min. each filter (96/mat) is punched out and put into counting vials 2 ml of scintillation fluid is added and the samples are counted (1 min) or the whole filter mat is put into a plastic bag, 10 ml of scintillation fluid is added and the filter mat is counted in a Beckman Betaplate counter. Percent reduction of RT activity is determined by comparing RT activity for virus control with the RT activity measured for each dilution of the compound.

A further assay addresses recombinant HIV-RT (Human immunodeficiency virus type 1 group M subtype B, UniProt P04585). The assay can be described thus: Test I (HIVRT (rAdt)), direct inhibition of recombinant HIV-RT. In kind it is biochemical. Here is the method: The compounds were tested for direct inhibitory activity on HIV-RT in a volume of […] recombinant HIV-RT (diluted in virus disruption buffer to give 200.000 cpm).
100 mM Tris-HCl pH 7.6, 100 mM KCl, 4 mM MgCl2, 4 mM DTT, 275 mg/ml BSA, 0.5 mg (rA)n(dT)12-18 and 0.3 mM ^3H- dTTP (specific activity […]). After 60 minutess of incubation 40 ml in duplicate were spotted on paper discs and washed in 5% TCA. After rinsing the paper discs in ethanol they were dried and counted in scintillation fluid.

In the next assay the test system is MT4 cells. The experiment in a line: Test D (XTT), MT4 cells, no virus. In kind it is cell-based. As to conditions: Homo sapiens. Here is the method: as §1, §2
The test system of the next assay is HIV-1. The experiment in a line: Test E (HIV-1 RT), RT activity in supernatant of infected MT-4/H9 cells. In kind it is cell-based. Here is the method: as §3, §4, §5, §6, §7
For the next assay, the system named is HIV virus. The assay can be described thus: Test A (XTT), MT4 cells infected with HIV. In kind it is cell-based. Particulars: for % inhibition: Test A. Here is the method:
as §1, §2

The next assay concerns SIV virus. The experiment in a line: Test C (XTT), MT4 cells infected with SIV. In kind it is cell-based. Particulars: for % inhibition: Test C. Here is the method: as §1, §2
Where [1] appears, read: Human immunodeficiency virus 1, MT4, Test B, 1 µg/ml.
Where [2] appears, read: Human immunodeficiency virus 1, MT4, Test B.
Setting [3] is: Human immunodeficiency virus 1, H9, Test E.
Setting [4] is: Human immunodeficiency virus 1, MT4, Test A, 1 µg/ml.
The mark [5] stands for this setting: Human immunodeficiency virus 1, MT4, Test A, 10 µg/ml.
Setting [6] is: Human immunodeficiency virus 1, MT4, Test A, 100 µg/ml.
[7] abbreviates: Simian immunodeficiency virus, MT4, Test C, 1 µg/ml.
Setting [8] is: Simian immunodeficiency virus, MT4, Test C.

Several values for one entry are separate records, joined by “and”; a condition that tells them apart may be missing. Equal entries are not always repeated.

A word on the inhibition: it is the drop in the measured response relative to a control, in per cent. Usually % inhibition stands for the drop in the measured response relative to a control, in per cent.

With `N#Cc1csc(NC(=S)NCCc2ccccc2)n1`, the inhibition at 0.1 µg/mL with HIV(II) virus (Human immunodeficiency virus 1, MT4, Test B, 0.1 µg/ml) is 74%; with HIV-2, 67%; at recombinant HIV-RT (0.1 µg/ml), 72%; with MT4 cells, 0%; with HIV-1 (Human immunodeficiency virus 1, H9, Test E, 0.1 µg/ml), 99%; in the assay with HIV virus (Human immunodeficiency virus 1, MT4, Test A, 0.1 µg/ml) it was 84%. Further, in the assay on SIV virus (Simian immunodeficiency virus, MT4, Test C, 0.1 µg/ml), at 0.1 µg/mL the inhibition was 11%. In addition, the inhibition at 1 µg/mL came to 90% in the assay on HIV(II) virus (setting [1]); 91% in the assay with HIV-2 (1 µg/ml); 93% at recombinant HIV-RT (1 µg/ml); 53% in the assay with MT4 cells; 98% in the assay with HIV-1 (setting [3]); 51% in the assay on HIV virus (setting [4]). In the assay with SIV virus (setting [7]), this compound came in with an inhibition at 1 µg/mL of 5%. Further, the inhibition at 10 µg/mL worked out at 0% in the assay on HIV(II) virus (setting [2]); 94% in the assay on HIV-2 (10 µg/ml); 94% at recombinant HIV-RT (10 µg/ml); 70% in the assay with MT4 cells; 98% in the assay with HIV-1 (setting [3]); 0% with HIV virus (setting [5]). In the assay with SIV virus (setting [8]), this compound had an inhibition at 10 µg/mL of 2%. In addition, the inhibition at 100 µg/mL was determined as 0% in the assay with HIV(II) virus (setting [2]); 96% in the assay on HIV-2 (100 µg/ml); 93% with MT4 cells; 98% in the assay on HIV-1 (setting [3]); 0% in the assay with HIV virus (setting [6]); 0% in the assay with SIV virus (setting [8]). In addition, the “% inhibition” value at recombinant HIV-RT (0.1 µg/ml) was 73%; at recombinant HIV-RT (1 µg/ml), 95%; at recombinant HIV-RT (10 µg/ml), 95%; in the assay with HIV virus (1 µg/ml) it was 63%.

As to `Cc1ccnc(NC(=S)NCCc2ccccc2)n1`, the inhibition at 1 µg/mL in the assay with HIV(II) virus (setting [1]) was determined as 0%; at recombinant HIV-RT (1 µg/ml), 15%; in the assay with HIV virus (setting [4]), 42%; in the assay with SIV virus (setting [7]), 0%. Further, the inhibition at 10 µg/mL in the assay with HIV(II) virus (setting [2]) stood at 27%; on recombinant HIV-RT (10 µg/ml), 9%; with HIV virus (setting [5]), 64%; in the assay with SIV virus (setting [8]), 0%. For the same compound, the inhibition at 100 µg/mL with HIV(II) virus (setting [2]) is 100%; in the assay with HIV virus (setting [6]), 100%; in the assay on SIV virus (setting [8]) it was 0%. Besides, the inhibition at 0.1 µg/mL on recombinant HIV-RT (0.1 µg/ml) stood at 9%.

As for `S=C(NCCc1ccccc1)Nc1nnc[nH]1`, the values for the inhibition at 0.1 µg/mL at recombinant HIV-RT (0.1 µg/ml) and with MT4 cells were 12% and 15%, respectively. Also, the inhibition at 1 µg/mL at recombinant HIV-RT (1 µg/ml) is 14%; in the assay with MT4 cells it was 33%; with HIV virus (setting [4]), 11%; with SIV virus (setting [7]) it was 5%. For the same compound, the inhibition at 10 µg/mL stood at 14% at recombinant HIV-RT (10 µg/ml), 33% in the assay on MT4 cells, 27% with HIV virus (setting [5]) and 8% in the assay on SIV virus (setting [8]). Moreover, the results for the inhibition at 100 µg/mL in the assay with MT4 cells, in the assay with HIV virus (setting [6]) and in the assay with SIV virus (setting [8]) were 0%, 45% and 15%, respectively.

Take `S=C(NCCc1ccccc1)Nc1nncs1`: the inhibition at 1 µg/mL came out at 100% in the assay on HIV(II) virus (setting [1]), 14% on recombinant HIV-RT (1 µg/ml), 100% in the assay with HIV virus (setting [4]) and 0% in the assay on SIV virus (setting [7]). Also, the inhibition at 10 µg/mL with HIV(II) virus (setting [2]) was 57%; at recombinant HIV-RT (10 µg/ml) it was 14%; in the assay on HIV virus (setting [5]) it was 100%; in the assay with SIV virus (setting [8]), 17%. Also, the inhibition at 100 µg/mL with HIV(II) virus (setting [2]) was 96%; in the assay on HIV virus (setting [6]), 100%; in the assay with SIV virus (setting [8]), 0%. Further, the inhibition at 0.1 µg/mL on recombinant HIV-RT (0.1 µg/ml) turned out to be 12%.

As for `CCOc1ccccc1CCNC(=S)Nc1nccs1`, the inhibition at 1 µg/mL came out at 100% in the assay with HIV(II) virus (setting [1]), 30% on recombinant HIV-RT (1 µg/ml), 96% in the assay on HIV virus (setting [4]) and 0% in the assay on SIV virus (setting [7]). Also, the inhibition at 10 µg/mL turned out to be 91% in the assay on HIV(II) virus (setting [2]), 33% at recombinant HIV-RT (10 µg/ml), 100% in the assay on HIV virus (setting [5]) and 5% in the assay on SIV virus (setting [8]). Further, the inhibition at 100 µg/mL in the assay with HIV(II) virus (setting [2]) came out at 100%; in the assay with HIV virus (setting [6]), 100%; in the assay with SIV virus (setting [8]), 0%. Moreover, the inhibition at 0.1 µg/mL on recombinant HIV-RT (0.1 µg/ml) was determined as 12%.

Turning to `S=C(NCCc1ccccc1)Nc1nccs1` [the 1st table, row 1], the “% inhibition” value in the assay on HIV(II) virus (Test B, 1 µg/ml) was 0%; in the assay on HIV-2 (1 µg/ml), 79%; in the assay with HIV-2 (10 µg/ml), 76%; in the assay on HIV-2 (100 µg/ml), 86%; in the assay with HIV-1 (Test E, 0.1 µg/ml), 10% and 1%; in the assay on HIV virus (0.1 µg/ml), 4%. Further, the “% inhibition” value in the assay on HIV virus (10 µg/ml) was 99% and 100% and 70% and 98%; in the assay on HIV virus (100 µg/ml), 58% and 64%; with SIV virus (0.1 µg/ml), 0% and 1%; in the assay with SIV virus (1 µg/ml) it was 0% and 8% and 2%. Also, the inhibition at 0.1 µg/mL was 43% with HIV-2 and 31% with MT4 cells. The inhibition at 1 µg/mL in the assay on HIV-2 (1 µg/ml) was determined as 75%; in the assay with MT4 cells, 18%; in the assay with HIV-1 (setting [3]), 99%. The inhibition at 10 µg/mL in the assay with HIV-2 (10 µg/ml) is 57%; in the assay on MT4 cells it was 33%; in the assay with HIV-1 (setting [3]), 99%. Besides, the inhibition at 100 µg/mL in the assay on HIV-2 (100 µg/ml) worked out at 95%; with MT4 cells it was 45%; in the assay on HIV-1 (setting [3]) it was 99%; with HIV virus (setting [6]) it was 48%.

(Values after EP0540143B1, “Compounds and methods for inhibition of HIV and related viruses” (priority 1991, dated 1993).)
